In PMC4760375, “A dual phosphorylation switch controls 14-3-3-dependent cell surface expression of TASK-1” (Journal of Cell Science, 2016):
Read-outs that look alike come from different tables or passages of the source. Non-standard residues stand in square brackets, D forms with d. Residues, ends and D or L forms follow the SMILES beside them. No end group written: not given here. pS = N[C@@H](COP(=O)(O)O)C(=O)O

T1: GST-tagged TASK-3 C-terminal 15 residues fusion protein, phosphorylated with PKA catalytic subunit (human, UniProt Q9NPC2 360-374)
T1 chain: {GST}-SFTDHQRLMKRRK[pS]V


Tests used:
[1] = molecular target: 14-3-3 proteins (all seven isoforms); assay: Fluorescence polarization titration, statements across the 14-3-3 isoforms; type: binding, human
Method: TASK-1 or TASK-3 C-terminal fluorescent peptides (10 nM), comprising the last 15 amino acids of the respective C-termini, were titrated with concentrations of the 14-3-3 proteins ranging from 1 nM to 120 µM (Fig. 2), and the equilibrium dissociation constants of 14-3-3 proteins were calculated for TASK-1 phosphorylated at S393 (TASK-1 pS393; the conserved serine residue of the mode III 14-3-3-binding motif) and for TASK-3 phosphorylated at S373 (TASK-3 pS373) (Table 1). They ranged from 7.5±0.14 µM (mean±s.e.m.; 14-3-3β) to 49.4±2 µM (14-3-3τ) for TASK-1, whereas dissociation constants for TASK-3 ranged from 110±10 nM (14-3-3η) to 3.6±0.44 µM (14-3-3σ). The latter value matches the result determined previously by [Anders et al. (2013]) for the TASK-3 C-terminal hexapeptide using isothermal titration calorimetry. The dissociation constants of the seven mammalian 14-3-3 isoforms for the same TASK C-terminal peptide differed up to sevenfold for TASK-1-derived peptides and up to 30-fold for TASK-3-derived peptides. […] No binding of any 14-3-3 isoform to any TASK C-terminal peptide was observed when the peptides were not phosphorylated.
Fig. 2. […] Fluorescence polarization titration of fluorescein-labeled TASK-1 pS393 (black), TASK-3 pS373 (red) and TASK-3 pS373 ΔV374 (blue) peptide (10 nM) with increasing concentrations of the indicated 14-3-3 isoform. Fluorescein was excited at 485 nm, and fluorescence polarization was monitored at 535 nm. A monophasic fit was used to fit the data (Goodness-of-fit: R^2 from 0.76 to 0.98). No binding was detectable for the unphosphorylated TASK C-terminal peptides. The assay was repeated at least six times for each data point with two batches of independently purified 14-3-3 proteins. Error bars depict s.e.m. (A) 14-3-3β, (B) 14-3-3γ, (C) 14-3-3ε, (D) 14-3-3ζ, (E) 14-3-3η and (F) 14-3-3τ.
[Mant et al. (2011)] report that both serine residues present in the TASK-1 C-terminus can be phosphorylated in vitro by the recombinant catalytic subunit of PKA. […] Next, using fluorescence polarization titration, we determined how phosphorylation of S392 affects the affinity of all seven mammalian 14-3-3 proteins for the TASK-1 C-terminus – either when phosphorylated alone or in combination with phosphorylation of S393 (Table S1). […] Because all Kd values determined for TASK-1 pS392 and the doubly phosphorylated protein (at S392 and S393) were substantially higher than those measured for TASK-1 pS393 (Table S1), we conclude that phosphorylation of S392 cannot substitute for phosphorylated S393 in creating a high-affinity 14-3-3 binding site. On the contrary, our results are consistent with an inhibitory role for phosphorylation of S392 with respect to 14-3-3-mediated binding.
Interactions between 14-3-3 proteins and TASK-1 and TASK-3 C-terminal peptides and variants were investigated using a fluorescence polarization assay ([Moll et al., 2006]; [Muda et al., 2014]). Fluorescein-labeled peptides were purchased from Peps4Life Sciences (Heidelberg, Germany). All measurements were performed in buffer containing 20 mM MOPS, 150 mM NaCl, 0.005% (v/v) CHAPS pH 7.0, using a Fusion™ α-FP microtiter plate reader at room temperature in a 384-well microtiter plater (Optiplate 384, black; Packard, Meriden, CT). 14-3-3 proteins were serially diluted from 100 µM to 1 nM and incubated with 10 nM of fluorescently labeled peptide. The fluorescence polarization signal was detected for 2 s at an excitation wavelength of 485 nm with an emission fluorescence polarization filter wavelength of 535 nm and a photomultiplier voltage of 1100. Data were analyzed with GraphPad Prism 6.0 (GraphPad Software, San Diego, CA) by plotting the obtained fluorescence polarization signal in millipolarization units (mPol) against the logarithm of the 14-3-3 protein concentration. The data were then fitted using a monophasic fit.

[2] = molecular target: T1, GST-tagged TASK-3 C-terminal 15 …; assay: SPR
[3] = molecular target: TASK-1 pS392 C-terminal fluorescent peptide (human) (UniProt O14649); assay: fluorescence polarisation; 10 nM fluorescein-labelled peptide titrated with 14-3-3 protein (1 nM to 120 µM in the results, 100 µM to 1 nM in the methods); 20 mM MOPS, 150 mM NaCl, 0.005% (v/v) CHAPS pH 7.0; room temperature; monophasic fit
[4] = molecular target: TASK-1 pS393 C-terminal fluorescent peptide (last 15 amino acids) (human) (UniProt O14649); assay: as above
[5] = fluorescence polarization, best of the seven isoforms, read-out: Kd of the highest-affinity 14-3-3 interaction

Row | Kd [1, 5] [µM] | Kd [2] [nM] | Kd [3] [µM] | Molecule | further results
1 | ~0.1 | – | – | CSCC[C@H](NC(=O)[C@H](CC(C)C)NC(=O)[C@H](CCCNC(=N)N)NC(=O)[C@H](CCC(N)=O)NC(=O)[C@H](Cc1c[nH]cn1)NC(=O)[C@H](CC(=O)O)NC(=O)[C@@H](NC(=O)[C@H](Cc1ccccc1)NC(=O)[C@H](CO)NC(=O)[C@@H](N)CS)[C@@H](C)O)C(=O)N[C@@H](CCCCN)C(=O)N[C@@H](CCCNC(=N)N)C(=O)N[C@@H](CCCNC(=N)N)C(=O)N[C@@H](CCCCN)C(=O)N[C@@H](COP(=O)(O)O)C(=O)N[C@H](C(=O)O)C(C)C [TASK-3 pS373] (H-CSFTDHQRLMKRRK[pS]V-OH; N-terminus assumed) | –
2 | – | – | – | CSCC[C@H](NC(=O)[C@H](CC(C)C)NC(=O)CNC(=O)[C@H](CCCNC(=N)N)NC(=O)[C@H](Cc1ccccc1)NC(=O)[C@@H](NC(=O)[C@H](CO)NC(=O)[C@H](CC(C)C)NC(=O)[C@H](CO)NC(=O)[C@@H](N)CS)[C@@H](C)O)C(=O)N[C@@H](CCCCN)C(=O)N[C@@H](CCCNC(=N)N)C(=O)N[C@@H](CCCNC(=N)N)C(=O)N[C@@H](COP(=O)(O)O)C(=O)N[C@@H](CO)C(=O)N[C@H](C(=O)O)C(C)C [TASK-1 pS392] (H-CSLSTFRGLMKRR[pS]SV-OH) | Kd ([1]; fluorescence polarization titration, all seven 14-3-3 proteins, read-out: Kd values across the 14-3-3 proteins (approximate, Table S1)): ~100 µM
3 | ~10 | – | – | CSCC[C@H](NC(=O)[C@H](CC(C)C)NC(=O)CNC(=O)[C@H](CCCNC(=N)N)NC(=O)[C@H](Cc1ccccc1)NC(=O)[C@@H](NC(=O)[C@H](CO)NC(=O)[C@H](CC(C)C)NC(=O)[C@H](CO)NC(=O)[C@@H](N)CS)[C@@H](C)O)C(=O)N[C@@H](CCCCN)C(=O)N[C@@H](CCCNC(=N)N)C(=O)N[C@@H](CCCNC(=N)N)C(=O)N[C@@H](CO)C(=O)N[C@@H](COP(=O)(O)O)C(=O)N[C@H](C(=O)O)C(C)C [TASK-1 pS393] (H-CSLSTFRGLMKRRS[pS]V-OH; N-terminus assumed) | fold lower affinity for 14-3-3 proteins than the TASK-3 C-terminus ([1]; fluorescence polarization, TASK-1 pS393 versus TASK-3 pS373): 10- to 100 fold
4 | – | – | – | CSCC[C@H](NC(=O)[C@H](CC(C)C)NC(=O)CNC(=O)[C@H](CCCNC(=N)N)NC(=O)[C@H](Cc1ccccc1)NC(=O)[C@@H](NC(=O)[C@H](CO)NC(=O)[C@H](CC(C)C)NC(=O)[C@H](CO)NC(=O)[C@@H](N)CS)[C@@H](C)O)C(=O)N[C@@H](CCCCN)C(=O)N[C@@H](CCCNC(=N)N)C(=O)N[C@@H](CCCNC(=N)N)C(=O)N[C@@H](COP(=O)(O)O)C(=O)N[C@@H](COP(=O)(O)O)C(=O)N[C@H](C(=O)O)C(C)C [doubly phosphorylated peptide] (H-CSLSTFRGLMKRR[pS][pS]V-OH; N-terminus assumed) | Kd values across the 14-3-3 proteins (approximate, Table S1) ([1]; fluorescence polarization titration, all seven 14-3-3 proteins): high micromolar range
5 | – | 221 | 100 | 14-3-3ζ (natural protein) MDKNELVQKAKLAEQAERYDDMAACMKSVTEQGAELSNEERNLLSVAYKNVVGARRSSWRVVSSIEQKTEGAEKKQQMAREYREKIETELRDICNDVLSLLEKFLIPNASQAESKVFYLKMKGDYYRYLAEVAAGDDKKGIVDQSQQAYQEAFEISKKEMQPTHPIRLGLALNFSVFYYEILNSPEKACSLAKTAFDEAIAELDTLSEESYKDSTLIMQLLRDNLTLWTSDTQGDEAEAGEGGEN | –
6 | – | 246 | 100 | 14-3-3τ (natural protein) MEKTELIQKAKLAEQAERYDDMATCMKAVTEQGAELSNEERNLLSVAYKNVVGGRRSAWRVISSIEQKTDTSDKKLQLIKDYREKVESELRSICTTVLELLDKYLIANATNPESKVFYLKMKGDYFRYLAEVACGDDRKQTIDNSQGAYQEAFDISKKEMQPTHPIRLGLALNFSVFYYEILNNPELACTLAKTAFDEAIAELDTLNEDSYKDSTLIMQLLRDNLTLWTSDSAGEECDAAEGAEN | Kd [4]: 49.4 µM
